Measurements from patent US11214803B2, “Modulators of YAP1 expression” (Ionis Pharmaceuticals, Inc., priority 2019, dated 2022).
Strand notation (5' to 3'): a small letter for the sugar, then the base; units joined by * are phosphorothioate-linked, units joined directly phosphodiester-linked; [ ] holds rarer units or linkages, { } end groups; capitals alone tell only the bases. k = constrained ethyl (cEt); [5mC] = 5-methylcytosine; d = 2'-deoxy (DNA)

test system: Yap1 mRNA; assay: Antisense inhibition of human Yap1 in A-431 cells by cEt gapmers, single dose (Example 3, RTS36584); format: cell-based; details: Table 8; A-431 cells, 5,000 cells per well, free uptake, 2,000 nM, approximately 48 hours; RTS36584; normalized to RIBOGREEN; Yap1 mRNA relative to untreated control cells
Method in brief: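 Single-dose free-uptake screen of 3-10-3 cEt gapmers in A-431 cells at 2,000 nM over about 48 h. Values are % untreated control Yap1 mRNA.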

| Substance | YAP1 (% UTC) |
| --- | --- |
| 958380 (antisense k[5mC]*kG*k[5mC]*dG*d[5mC]*d[5mC]*d[5mC]*dG*d[5mC]*d[5mC]*d[5mC]*dG*d[5mC]*kA*k[5mC]*k[5mC]) [Compound 958380] | 106 % UTC |
| 958415 (antisense k[5mC]*kT*kG*dT*dG*dT*dA*dG*dG*d[5mC]*dT*dG*dA*k[5mC]*kT*kT) [Compound 958415] | 16 % UTC |
| 958359 (antisense kT*kG*k[5mC]*dA*dT*d[5mC]*dA*dG*dT*dA*d[5mC]*dT*dG*kG*k[5mC]*k[5mC]) [Compound 958359] | 117 % UTC |

same assay, conditions: Table 9; A-431 cells, 5,000 cells per well, free uptake, 2,000 nM, approximately 48 hours; RTS36584; normalized to RIBOGREEN; Yap1 mRNA relative to untreated control cells

| Substance | YAP1 (% UTC) |
| --- | --- |
| 958536 (kA*kG*kG*dG*dT*d[5mC]*dA*dA*dT*dT*dT*dT*d[5mC]*kA*kG*k[5mC]; antisense) [Compound 958536] | 3 % UTC |
| 958766 (antisense kT*kA*kA*d[5mC]*dA*dT*dA*dT*dG*dT*d[5mC]*dT*dA*k[5mC]*kT*k[5mC]) [Compound 958766] | 23 % UTC |

same assay, conditions: Table 10; A-431 cells, 5,000 cells per well, free uptake, 2,000 nM oligonucleotide, approx. 48 hours; primer probe set RTS36584; Yap1 mRNA normalized to RIBOGREEN, percent of untreated control

| Substance | YAP1 (% UTC) |
| --- | --- |
| 958487 (kT*k[5mC]*k[5mC]*dA*dA*dA*d[5mC]*dA*dG*dG*d[5mC]*dT*d[5mC]*kA*k[5mC]*kT; antisense) [Compound 958487] | 10 % UTC |
| 958602 (kT*kG*k[5mC]*d[5mC]*dA*dT*dG*dT*dT*d[5mC]*d[5mC]*dA*dT*kA*kT*kA; antisense) [Compound 958602] | 16 % UTC |
| 958762 (antisense kG*kA*kT*dT*dA*dG*dA*dG*dG*dA*d[5mC]*dT*d[5mC]*kA*kT*kT) [Compound 958762] | 16 % UTC |
| 958757 (antisense kG*kT*kG*dA*dT*d[5mC]*dT*dG*d[5mC]*dA*d[5mC]*dA*dT*kT*kG*kT) [Compound 958757] | 5 % UTC |
| 958737 (antisense kG*kG*kA*dA*dT*dA*d[5mC]*dA*dA*dG*d[5mC]*d[5mC]*d[5mC]*kG*kA*kG) [Compound 958737] | 8 % UTC |
| 958627 (antisense kT*kT*kG*dG*dG*d[5mC]*dA*dA*dA*dG*dT*dT*d[5mC]*k[5mC]*kT*kA) [Compound 958627] | 61 % UTC |
| 958687 (antisense kA*k[5mC]*kA*d[5mC]*dT*dA*dT*dG*dT*dG*dT*dT*d[5mC]*kT*kG*k[5mC]) [Compound 958687] | 57 % UTC |

same assay, conditions: Table 11; A-431 cells, 5,000 cells per well, free uptake, 2,000 nM oligonucleotide, approx. 48 hours; primer probe set RTS36584; Yap1 mRNA normalized to RIBOGREEN, percent of untreated control

| Substance | YAP1 (% UTC) |
| --- | --- |
| 958708 (antisense kA*kT*kG*dT*d[5mC]*dA*dG*dA*dT*dG*dT*d[5mC]*dA*kA*kT*kT) [Compound 958708] | 19 % UTC |
| 958638 (antisense kG*kT*kG*d[5mC]*dG*dG*dA*dG*d[5mC]*dG*d[5mC]*dG*d[5mC]*kG*kG*kA) [Compound 958638] | 127 % UTC |
| 958648 (kG*kA*kA*dT*dA*d[5mC]*dT*dG*dA*dG*dT*d[5mC]*dA*kG*kG*kA; antisense) [Compound 958648] | 7 % UTC |
| 958808 (kA*kG*k[5mC]*dG*dA*dT*dT*dG*dG*d[5mC]*d[5mC]*dT*d[5mC]*k[5mC]*k[5mC]*kA; antisense) [Compound 958808] | 59 % UTC |
| 958613 (antisense k[5mC]*k[5mC]*kT*dG*dA*dA*dG*d[5mC]*d[5mC]*dG*dA*dG*dT*kT*k[5mC]*kA) [Compound 958613] | 15 % UTC |
| 958768 (antisense kG*kT*kG*d[5mC]*dA*dA*dG*d[5mC]*dA*dG*dG*dT*dT*k[5mC]*k[5mC]*k[5mC]) [Compound 958768] | 17 % UTC |
| 958698 (antisense k[5mC]*kT*kT*dA*dT*dT*dA*dG*d[5mC]*d[5mC]*d[5mC]*dT*d[5mC]*kA*kA*kA) [Compound 958698] | 30 % UTC |
| 958658 (kA*k[5mC]*kA*dG*dT*dA*dT*dA*dA*dT*dA*dT*d[5mC]*k[5mC]*kT*kA; antisense) [Compound 958658] | 6 % UTC |

same assay, conditions: Table 12; A-431 cells, 5,000 cells per well, free uptake, 2,000 nM modified oligonucleotide, approx. 48 hours; RTS36584; normalized to RIBOGREEN; Yap1 mRNA relative to untreated control cells

| Substance | YAP1 (% UTC) |
| --- | --- |
| 958494 (kT*kA*kG*d[5mC]*dA*d[5mC]*dT*dA*dG*dG*dA*dG*dG*kA*kA*kA; antisense) [Compound 958494] | 28 % UTC |
| 958489 (kT*kT*k[5mC]*dT*dA*dA*dG*dT*d[5mC]*dT*dG*dA*dG*kT*kA*kT; antisense) [Compound 958489] | 14 % UTC |
| 958724 (antisense kT*k[5mC]*kA*dG*dT*dT*dA*dT*d[5mC]*d[5mC]*dT*dA*dT*k[5mC]*k[5mC]*k[5mC]) [Compound 958724] | 2 % UTC |
| 958579 (kA*kT*k[5mC]*dT*dT*dA*dA*dT*d[5mC]*dT*dG*dT*dG*kG*k[5mC]*kT; antisense) [Compound 958579] | 4 % UTC |
| 958564 (kT*k[5mC]*k[5mC]*dA*dA*dA*dT*dT*dG*dA*dA*dG*dG*kG*k[5mC]*k[5mC]; antisense) [Compound 958564] | 62 % UTC |

same assay, conditions: Table 13; A-431 cells, 5,000 cells per well, free uptake, 2,000 nM modified oligonucleotide, approx. 48 hours; RTS36584; normalized to RIBOGREEN; Yap1 mRNA relative to untreated control cells

| Substance | YAP1 (% UTC) |
| --- | --- |
| 958685 (antisense kA*kG*k[5mC]*dT*dA*dT*dG*dG*dA*dA*dA*dG*dT*kG*kT*k[5mC]) [Compound 958685] | 24 % UTC |

same assay, conditions: Table 26; Yap1 mRNA by 3-10-3 cEt gapmers targeting SEQ ID NO.: 1, and 2; percent of untreated control

| Substance | YAP1 (% UTC) |
| --- | --- |
| 1075660 (antisense k[5mC]*kA*kA*dA*dG*dT*dA*dA*dA*dA*dA*dA*d[5mC]*kG*kG*kT) [compound 1075660] | 72 % UTC |
| 1075532 (kA*k[5mC]*kT*dT*dA*dA*dT*dA*dG*dT*dT*dT*dA*kA*k[5mC]*k[5mC]; antisense) [compound 1075532] | 121 % UTC |
| 1075884 (antisense kA*kT*kT*dA*dG*dT*dA*dA*dT*dG*dA*d[5mC]*dT*kA*kA*k[5mC]) [compound 1075884] | 116 % UTC |
| 1076012 (kA*kA*kT*dA*dT*dA*dA*dA*d[5mC]*dA*dA*dT*dA*kG*k[5mC]*kG; antisense) [compound 1076012] | 34 % UTC |
| 1074124 (kG*kG*k[5mC]*dT*dG*d[5mC]*dG*dA*dG*dG*d[5mC]*dA*d[5mC]*kT*k[5mC]*kG; antisense) [compound 1074124] | 94 % UTC |

same assay, conditions: Table 27; Yap1 mRNA by 3-10-3 cEt gapmers targeting SEQ ID NO.: 1, and 2; percent of untreated control

| Substance | YAP1 (% UTC) |
| --- | --- |
| 1075181 (kT*kT*kA*dT*dA*dT*dT*dA*d[5mC]*dT*dA*d[5mC]*dA*kA*k[5mC]*k[5mC]; antisense) [compound 1075181] | 15 % UTC |

same assay, conditions: Table 28; Yap1 mRNA as percent of untreated control; 3-10-3 cEt gapmers targeting SEQ ID NO.: 1, and 2

| Substance | YAP1 (% UTC) |
| --- | --- |
| 1075950 (antisense kT*kG*kA*d[5mC]*dA*dA*dT*dA*d[5mC]*d[5mC]*dT*dT*d[5mC]*k[5mC]*kT*kA) [compound 1075950] | 30 % UTC |
| 1074926 (antisense k[5mC]*kA*kA*d[5mC]*dA*dG*dG*d[5mC]*d[5mC]*dT*dG*d[5mC]*dA*kA*kA*kT) [compound 1074926] | 111 % UTC |

same assay, conditions: Table 29; Yap1 mRNA as percent of untreated control; 3-10-3 cEt gapmers targeting SEQ ID NO.: 1, and 2

| Substance | YAP1 (% UTC) |
| --- | --- |
| 1075663 (antisense k[5mC]*kT*kA*dA*dA*dT*dA*dG*dG*dT*dG*dG*dT*kT*kA*kT) [compound 1075663] | 80 % UTC |
| 1074383 (kT*k[5mC]*kA*dA*dG*dG*dT*dA*dG*dT*d[5mC]*dT*dG*kG*kG*kA; antisense) [compound 1074383] | 40 % UTC |
| 1074991 (antisense kA*kA*kT*dT*dA*dT*dT*dT*dG*dA*d[5mC]*dT*d[5mC]*k[5mC]*k[5mC]*k[5mC]) [compound 1074991] | 60 % UTC |
| 1075919 (antisense kT*k[5mC]*kT*dT*dA*dA*dA*d[5mC]*dT*dA*dA*d[5mC]*dT*kG*kT*kT) [compound 1075919] | 78 % UTC |

same assay, conditions: Table 34; Yap1 mRNA as percent of untreated control; 3-10-3 cEt gapmers targeting SEQ ID NO: 1 and 2; single dose

| Substance | YAP1 (% UTC) |
| --- | --- |
| 1076532 (kA*kT*kT*dT*dT*dT*dA*dG*dG*d[5mC]*dA*dG*dA*k[5mC]*kG*k[5mC]; antisense) [compound 1076532] | 12 % UTC |
| 1075892 (antisense k[5mC]*kA*k[5mC]*d[5mC]*dA*dA*dT*dA*d[5mC]*d[5mC]*dA*dA*dA*kG*kT*k[5mC]) [compound 1075892] | 54 % UTC |
| 1075956 (kT*kA*kT*dA*dA*dA*dG*d[5mC]*dA*dA*dT*dG*d[5mC]*kG*kA*kT; antisense) [compound 1075956] | 27 % UTC |

same assay, conditions: Table 35; Yap1 mRNA as percent of untreated control; 3-10-3 cEt gapmers targeting SEQ ID NO: 1 and 2; single dose

| Substance | YAP1 (% UTC) |
| --- | --- |
| 1075925 (antisense kA*kA*k[5mC]*d[5mC]*dT*dA*dT*dA*dT*dT*dA*dT*dT*kT*kG*k[5mC]) [compound 1075925] | 28 % UTC |
| 1074837 (kT*kA*kA*d[5mC]*dA*dA*d[5mC]*dA*dT*dG*d[5mC]*dT*dT*kG*k[5mC]*kG; antisense) [compound 1074837] | 11 % UTC |
| 1076149 (kT*kT*kA*dT*dT*dA*dA*d[5mC]*dT*d[5mC]*dA*d[5mC]*dG*kA*kA*kG; antisense) [compound 1076149] | 24 % UTC |
| 1075221 (k[5mC]*kA*kT*dT*dA*dT*d[5mC]*d[5mC]*dG*dG*dG*dA*dG*kA*kG*k[5mC]; antisense) [compound 1075221] | 10 % UTC |
| 1074773 (k[5mC]*kA*kG*dT*dT*dA*dA*dA*dA*dT*d[5mC]*dT*dT*kA*kT*k[5mC]; antisense) [compound 1074773] | 94 % UTC |
